# Data reported in patent US8389573B2, “Glycyrrhetinic acid derivatives” (Wellington Laboratories Inc., priority 2006, dated 2013).
# “Also recorded” adds a separate entry of the source.
# Assays:
# [1] = system: PSA mRNA; test: Real-time PCR of PSA mRNA in LNCaP cells; type: cell-based, human; conditions: 12 or 18 hr
# Method: Real-Time PCR: Total RNA was isolated using the RNeasy Protect Mini kit (QIAGEN, Valencia, Calif.) according to the manufacturer's protocol. RNA was eluted with 30 μl of RNasefree water and stored at −80° C. RNA was reverse transcribed using Superscript II reverse transcriptase (Invitrogen) according to the manufacturer's protocol. cDNA was prepared from the LNCaP cell line using a combination of oligodeoxythymidylic acid and dNTP mix (Applied Biosystems, Foster City, Calif.) and Superscript II (Invitrogen). Each PCR was carried out in triplicate in a 25-μl volume using SYBR Green Master mix (Applied Biosystems) for 15 min at 95° C. for initial denaturing, followed by 40 cycles of 95° C. for 30 s and 60° C. for 1 min in the ABI Prism 7700 sequence detection system (Applied Biosystems). The ABI Dissociation Curves software was used after a brief thermal protocol (95° C. 15 s and 60° C. 20 s, followed by a slow ramp to 95° C.) to control for multiple species in each PCR amplification. The comparative CT method was used for relative quantitation of samples. Values for each gene were normalized to expression levels of TATA-binding protein. Primers were purchased from Integrated DNA Technologies (Coralville, Iowa). The sequences of the primers used for reverse transcription-PCR were as follows: AR forward, 5′-GTA CCC TGG CGG CAT GGT-3′ [SEQ ID NO: 1] and AR reverse, 5′-CCCATTTCGCTTTTGACACA-3′ [SEQ ID NO: 2]; PSA forward, 5′-GCATTGAACCAGAGGAGTTCTTG-3′ [SEQ ID NO: 3] and PSA reverse, 5′-TTG CGC ACA CAC GTC ATT G-3′ [SEQ ID NO: 4]; and TATA-binding protein forward, 5′-TGCACAGGAGCCAAGAGTGAA-3′ [SEQ ID NO: 5] and reverse, 5′-CACATCACAGCTCCCCACCA-3′ [SEQ ID NO: 6].
# [2] = system: PPARγ; test: PPARγ-GAL4/pGAL4 transfection and luciferase assay in HT-29 cells; type: cell-based
# Method: (§1) The Gal4 reporter containing 5× Gal4 response elements (pGal4) was kindly provided by Dr. Marty Mayo (University of North Carolina, Chapel Hill, N.C.). Gal4 DBD-PPARγ construct (gPPARγ) was a gift of Dr. Jennifer L. Oberfield (GlaxoSmithKline Research and Development, Research Triangle Park, N.C.). PPRE3-luc construct contains three tandem PPREs with a minimal TATA sequence in pGL2.
# (§2) Colon Cancer cell lines SW480 and HT29 (1×10^5 cells/well) were plated in 12-well plates in DMEM/Ham's F-12 media supplemented with 2.5% charcoal-stripped FBS. After 16 h, various amounts of DNA [i.e., Gal4Luc (0.4 μg), β-Gal (0.04 μg), Gal4PPAR and PPRE3-Luc (0.04 μg)] were transfected using LipofectAMINE™ reagent (Invitrogen) following the manufacturer's protocol. Five hours after transfection, the transfection mix was replaced with complete media containing either vehicle (DMSO) or the indicated ligand for 20 to 22 h. Cells were then lysed with 100 μl of 1× reporter lysis buffer, and 30 μl of cell extract was used for luciferase and […] assays. A LumiCount™ luminometer (PerkinElmer Life and Analytical Sciences) was used to quantitate luciferase and β-Gal activities, and the luciferase activities were normalized to β-Gal activity. Results are expressed as means±S.E. for at least three replicate determinations for each treatment group
# [3] = system: HT-29 cells; test: Western blot analysis in HT-29 cells; type: cell-based, human
# Method: (§3) SW-480 and HT-29 (3×10^5) cells were seeded in six-well plates in DMEM/Ham's F-12 media containing 2.5% charcoal-stripped FBS for 24 h and then treated with either the vehicle (DMSO) or the indicated compounds. Whole-cell lysates were obtained using high-salt buffer [50 mM HEPES, 500 mM NaCl, 1.5 mM MgCl2, 1 mM EGTA, 10% glycerol, and 1% Triton X-100, pH 7.5, and 5 μl/ml Protease Inhibitor Cocktail (Sigma-Aldrich)]. Protein samples were incubated at 100° C. for 2 min, separated on 10% SDS-PAGE at 120 V for 3 to 4 h in 1× running buffer (25 mM Tris-base, 192 mM glycine, and 0.1% SDS, pH 8.3), and transferred to polyvinylidene difluoride membrane (PVDF; Bio-Rad, Hercules, Calif.) at […] for 16 h at 4° C. in 1× transfer buffer (48 mM Tris-HCl, 39 mM glycine, and 0.025% SDS). The PVDF membrane was blocked in 5% TBST-Blotto (10 mM Tris-HCl, 150 mM NaCl, pH 8.0, 0.05% Triton X-100, and 5% nonfat dry milk) with gentle shaking for 30 min and was incubated in fresh 5% TBST-Blotto with 1:1000 (for caveolin-1, p27, p21, cyclin D1, Grp78), 1:500 (for KLF4, NAG-1), 1:250 (for PARP), and 1:5000 (for β-actin) primary antibody overnight with gentle shaking at 4° C. After washing with TBST for 10 min, the PVDF membrane was incubated with secondary antibody (1:5000) in 5% TBST-Blotto for 90 min. The membrane was washed with TBST for 10 min, incubated with 10 ml of chemiluminescence substrate (PerkinElmer) for 1.0 min, and exposed to Kodak X-OMAT AR autoradiography film (Eastman Kodak, Rochester, N.Y.).
# [4] = system: SW480 cells; test: Western blot analysis in SW480 cells; type: cell-based, human
# Method: as §3
# [5] = system: Sp1, Sp3 and Sp4 protein expression in Panc28 cells; test: Sp protein expression (gels) in Panc28 cells; type: cell-based
# [6] = system: PPARγ; test: PPARγ-GAL4/pGAL4 transfection and luciferase assay in SW480 cells; type: cell-based
# Method: as §1, §2
smiles,measurement,setting,value
"COC(=O)[C@@]1(C)CC[C@]2(C)CC[C@]3(C)C(=CC(=O)[C@@H]4[C@@]5(C)C=C(C#N)C(=O)C(C)(C)[C@@H]5CC[C@]43C)[C@@H]2C1 [β-CDODA-Me, Methyl 2-cyano-3,11-dioxo-18β-oleana-1,12-dien-30-oate]",PSA mRNA levels,[1],downregulation of PSA mRNA levels
same,PSA mRNA response after cotreatment with T007,[1],not inhibited
same,downregulation of PSA mRNA levels after cotreatment with cycloheximide,[1],significantly inhibited
same,PPARγ transactivation (GAL4-PPARγ/GAL4-Luc),[2],induced transactivation
same,melting point,,243 to 245 °C
same,NAG-1 and KLF4 proteins,"[3]; HT-29, 24 hours",induction of NAG-1 and KLF4 proteins
same,PARP cleavage,"[3]; HT-29, 24 hours",induction of PARP cleavage
same,NAG-1 protein levels,"[3]; HT-29, 24 hours, higher (5 μM) concentration",decreased
same,induction of NAG-1 and PARP cleavage after cotreatment with T007,"[3]; HT-29, 24 hr",not affected
same,KLF-4 induction after cotreatment with T007,"[3]; HT-29, 24 hr, 10 μM T007",blocks this induction response
same,caveolin-1,"[3]; HT-29, 3 days",induction of caveolin-1
same,induction of caveolin-1 after cotreatment with T007,"[3]; HT-29, 96 hr, 10 μM T007",inhibited
same,KLF4 induction,"[4]; SW480, 0.5-7.5 μM",induction
same,NAG-1 induction,"[4]; SW480, 24 hr",not induced
same,induction of GRP78 protein (ER stress),"[4]; SW480, 24 hr",not observed
same,KLF-4 induction after cotreatment with T007,"[4]; SW480, 24 hr, 10 μM T007",blocks this induction response
same,"down regulation of cyclin D1, p27 or PARP cleavage after cotreatment with T007","[4]; SW480, 24 hr, 10 μM T007",does not affect
same,PARP cleavage (indicator of apoptosis),"[4]; SW480, 24 hr, 0.5-5.0 μM",only observed at higher concentrations
same,p27 protein,"[4]; SW480, 24 hr, 0.5-5.0 μM",dose-dependent increase
same,Cyclin D1 and p21 protein expression,"[4]; SW480, 24 hr, 0.5 or 1 μM",unchanged
same,Cyclin D1 and p21 protein expression,"[4]; SW480, 24 hr, 2.5 and 5.0 μM",decreased
same,caveolin-1 protein expression,"[4]; SW480, treatment for 3 days",did not affect expression of caveolin-1
same,"Sp1, Sp3 and Sp4 protein expression",[5],concentration-dependent decrease; also recorded: induces Sp protein degradation
same,VEGF expression,[5],parallel decrease
same,caspase-dependent apoptosis (PARP cleavage),[5],induction of caspase-dependent apoptosis
same,effects on Sp protein expression with PPARγ antagonist (T007),[5],not blocked; also recorded: not reversed
same,effects on Sp protein expression with proteasome inhibitor lactacystin,[5],not blocked; also recorded: only a minimal amount of reversal
same,induced luciferase activity after cotreatment with PPARγ antagonist T007,"[6]; 1.0, 2.5, 5.0 β-CDODA-Me or 10, 20, 30 μM β-CDODA, 10 μM T007",inhibited
same,maximal induction of luciferase activity (PPARγ activation),[6]; 1-5 μM,18 Fold
